Laboratory results reported in PubChem BioAssay (NCI).
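Cultured in 96-well plates, cells were exposed to test compound for 48 hours across five concentrations. GI50 = concentration required for 50% inhibition of growth. TGI is the concentration that stops growth completely.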

Tests used:
Assay in all cases: NCI-60 cell line screen, 48 h
HCT-15 colon = test system: HCT-15 colon
A498 renal = test system: A498 renal
HL-60(TB) leukemia = test system: HL-60(TB) leukemia
EKVX NSCLC = test system: EKVX NSCLC
MOLT-4 leukemia = test system: MOLT-4 leukemia
DMS 114 small cell lung = test system: DMS 114 small cell lung
A549 NSCLC = test system: A549 NSCLC
NCI-H226 lung = test system: NCI-H226 lung
786-0 renal = test system: 786-0 renal
SR leukemia = test system: SR leukemia
NCI-H23 lung = test system: NCI-H23 lung
UACC-257 melanoma = test system: UACC-257 melanoma
MALME-3M melanoma = test system: MALME-3M melanoma
HOP-62 NSCLC = test system: HOP-62 NSCLC
SK-MEL-5 melanoma = test system: SK-MEL-5 melanoma
NCI-H460 lung = test system: NCI-H460 lung
SF-539 CNS = test system: SF-539 CNS
SK-OV-3 ovarian = test system: SK-OV-3 ovarian
COLO 205 colon = test system: COLO 205 colon
CCRF-CEM leukemia = test system: CCRF-CEM leukemia
SF-295 CNS = test system: SF-295 CNS
U251 CNS = test system: U251 CNS
HT29 colon = test system: HT29 colon
OVCAR-3 ovarian = test system: OVCAR-3 ovarian
NCI-H522 lung = test system: NCI-H522 lung
SW-620 colon = test system: SW-620 colon
SNB-75 CNS = test system: SNB-75 CNS
OVCAR-5 ovarian = test system: OVCAR-5 ovarian
SNB-19 CNS = test system: SNB-19 CNS
ACHN renal = test system: ACHN renal
KM12 colon = test system: KM12 colon
RXF 393 renal = test system: RXF 393 renal
SK-MEL-2 melanoma = test system: SK-MEL-2 melanoma
SF-268 CNS = test system: SF-268 CNS
HCC-2998 colon = test system: HCC-2998 colon
LOX IMVI melanoma = test system: LOX IMVI melanoma
M19-MEL melanoma = test system: M19-MEL melanoma
HCT-116 colon = test system: HCT-116 colon
UO-31 renal = test system: UO-31 renal
RPMI-8226 leukemia = test system: RPMI-8226 leukemia
SNB-78 CNS = test system: SNB-78 CNS
KM20L2 colon = test system: KM20L2 colon
SK-MEL-28 melanoma = test system: SK-MEL-28 melanoma
IGROV1 ovarian = test system: IGROV1 ovarian
K-562 leukemia = test system: K-562 leukemia
OVCAR-8 ovarian = test system: OVCAR-8 ovarian
CAKI-1 renal = test system: CAKI-1 renal
TK-10 renal = test system: TK-10 renal
SN12C renal = test system: SN12C renal
M14 melanoma = test system: M14 melanoma
OVCAR-4 ovarian = test system: OVCAR-4 ovarian
UACC-62 melanoma = test system: UACC-62 melanoma
LXFL 529 NSCLC = test system: LXFL 529 NSCLC
DLD-1 colon = test system: DLD-1 colon
DMS 273 small cell lung = test system: DMS 273 small cell lung
HOP-92 NSCLC = test system: HOP-92 NSCLC

CN(C)C(=S)/N=c1\ss/c(=N\C(=S)N(C)C)n1C1CCCCC1
TGI (HCT-15 colon): > 100 µM | TGI (A498 renal): > 100 µM | TGI (HL-60(TB) leukemia): > 100 µM | TGI (EKVX NSCLC): > 100 µM | TGI (MOLT-4 leukemia): > 100 µM | TGI (DMS 114 small cell lung): 24.2 µM | TGI (A549 NSCLC): > 100 µM | TGI (NCI-H226 lung): > 100 µM | TGI (786-0 renal): > 100 µM | TGI (SR leukemia): > 100 µM | TGI (NCI-H23 lung): > 100 µM | TGI (UACC-257 melanoma): > 100 µM | TGI (MALME-3M melanoma): > 100 µM | TGI (HOP-62 NSCLC): > 100 µM | TGI (SK-MEL-5 melanoma): > 100 µM | TGI (NCI-H460 lung): 15.5 µM | TGI (SF-539 CNS): > 100 µM | TGI (SK-OV-3 ovarian): > 100 µM | TGI (COLO 205 colon): > 100 µM | TGI (CCRF-CEM leukemia): > 100 µM | TGI (SF-295 CNS): > 100 µM | TGI (U251 CNS): > 100 µM | TGI (HT29 colon): 43.8 µM | TGI (OVCAR-3 ovarian): > 100 µM | TGI (NCI-H522 lung): > 100 µM | TGI (SW-620 colon): > 100 µM | TGI (SNB-75 CNS): > 100 µM | TGI (OVCAR-5 ovarian): > 100 µM | TGI (SNB-19 CNS): > 100 µM | TGI (ACHN renal): > 100 µM | TGI (KM12 colon): > 100 µM | TGI (RXF 393 renal): > 100 µM | TGI (SK-MEL-2 melanoma): > 100 µM | TGI (SF-268 CNS): > 100 µM | TGI (HCC-2998 colon): > 100 µM | TGI (LOX IMVI melanoma): > 100 µM | TGI (M19-MEL melanoma): > 100 µM | TGI (HCT-116 colon): > 100 µM | TGI (UO-31 renal): > 100 µM | TGI (RPMI-8226 leukemia): > 100 µM | TGI (SNB-78 CNS): > 100 µM | TGI (KM20L2 colon): > 100 µM | TGI (SK-MEL-28 melanoma): > 100 µM | TGI (IGROV1 ovarian): > 100 µM | TGI (K-562 leukemia): > 100 µM | TGI (OVCAR-8 ovarian): > 100 µM | TGI (CAKI-1 renal): > 100 µM | TGI (TK-10 renal): > 100 µM | TGI (SN12C renal): > 100 µM | TGI (M14 melanoma): > 100 µM | TGI (OVCAR-4 ovarian): 63 µM | TGI (UACC-62 melanoma): > 100 µM

CC(C)CC(=O)[O-].N.N.N.N.N.[Co+3].[O-][Cl+3]([O-])([O-])[O-]
GI50 (HCT-15 colon): > 100 µM | TGI (HCT-15 colon): > 100 µM | GI50 (A498 renal): > 100 µM | TGI (A498 renal): > 100 µM | GI50 (EKVX NSCLC): > 100 µM | TGI (EKVX NSCLC): > 100 µM | GI50 (MOLT-4 leukemia): 70.8 µM | TGI (MOLT-4 leukemia): > 100 µM | GI50 (A549 NSCLC): > 100 µM | TGI (A549 NSCLC): > 100 µM | GI50 (786-0 renal): > 100 µM | TGI (786-0 renal): > 100 µM | GI50 (LXFL 529 NSCLC): > 100 µM | TGI (LXFL 529 NSCLC): > 100 µM | GI50 (NCI-H23 lung): > 100 µM | TGI (NCI-H23 lung): > 100 µM | GI50 (UACC-257 melanoma): > 100 µM | TGI (UACC-257 melanoma): > 100 µM | GI50 (MALME-3M melanoma): > 100 µM | TGI (MALME-3M melanoma): > 100 µM | GI50 (HOP-62 NSCLC): > 100 µM | TGI (HOP-62 NSCLC): > 100 µM | GI50 (SK-MEL-5 melanoma): > 100 µM | TGI (SK-MEL-5 melanoma): > 100 µM | GI50 (NCI-H460 lung): > 100 µM | TGI (NCI-H460 lung): > 100 µM | GI50 (SF-539 CNS): > 100 µM | TGI (SF-539 CNS): > 100 µM | GI50 (SK-OV-3 ovarian): > 100 µM | TGI (SK-OV-3 ovarian): > 100 µM | GI50 (COLO 205 colon): > 100 µM | TGI (COLO 205 colon): > 100 µM | GI50 (CCRF-CEM leukemia): > 100 µM | TGI (CCRF-CEM leukemia): > 100 µM | GI50 (DLD-1 colon): > 100 µM | TGI (DLD-1 colon): > 100 µM | GI50 (SF-295 CNS): > 100 µM | TGI (SF-295 CNS): > 100 µM | GI50 (U251 CNS): > 100 µM | TGI (U251 CNS): > 100 µM | GI50 (HT29 colon): > 100 µM | TGI (HT29 colon): > 100 µM | GI50 (OVCAR-3 ovarian): > 100 µM | TGI (OVCAR-3 ovarian): > 100 µM | GI50 (NCI-H522 lung): > 100 µM | TGI (NCI-H522 lung): > 100 µM | GI50 (SW-620 colon): > 100 µM | TGI (SW-620 colon): > 100 µM | GI50 (SNB-75 CNS): 22 µM | TGI (SNB-75 CNS): > 100 µM | GI50 (OVCAR-5 ovarian): > 100 µM | TGI (OVCAR-5 ovarian): > 100 µM | GI50 (SNB-19 CNS): > 100 µM | TGI (SNB-19 CNS): > 100 µM | GI50 (ACHN renal): > 100 µM | TGI (ACHN renal): > 100 µM | GI50 (KM12 colon): > 100 µM | TGI (KM12 colon): > 100 µM | GI50 (SK-MEL-2 melanoma): > 100 µM | TGI (SK-MEL-2 melanoma): > 100 µM | GI50 (SF-268 CNS): > 100 µM | TGI (SF-268 CNS): > 100 µM | GI50 (HCC-2998 colon): > 100 µM | TGI (HCC-2998 colon): > 100 µM | GI50 (LOX IMVI melanoma): > 100 µM | TGI (LOX IMVI melanoma): > 100 µM | GI50 (DMS 273 small cell lung): > 100 µM | TGI (DMS 273 small cell lung): > 100 µM | GI50 (HCT-116 colon): > 100 µM | TGI (HCT-116 colon): > 100 µM | GI50 (UO-31 renal): 85.7 µM | TGI (UO-31 renal): > 100 µM | GI50 (RPMI-8226 leukemia): > 100 µM | TGI (RPMI-8226 leukemia): > 100 µM | GI50 (SNB-78 CNS): > 100 µM | TGI (SNB-78 CNS): > 100 µM | GI50 (KM20L2 colon): > 100 µM | TGI (KM20L2 colon): > 100 µM | GI50 (SK-MEL-28 melanoma): > 100 µM | TGI (SK-MEL-28 melanoma): > 100 µM | GI50 (IGROV1 ovarian): > 100 µM | TGI (IGROV1 ovarian): > 100 µM | GI50 (K-562 leukemia): > 100 µM | TGI (K-562 leukemia): > 100 µM | GI50 (OVCAR-8 ovarian): > 100 µM | TGI (OVCAR-8 ovarian): > 100 µM | GI50 (TK-10 renal): > 100 µM | TGI (TK-10 renal): > 100 µM | GI50 (SN12C renal): > 100 µM | TGI (SN12C renal): > 100 µM | GI50 (M14 melanoma): > 100 µM | TGI (M14 melanoma): > 100 µM | GI50 (OVCAR-4 ovarian): > 100 µM | TGI (OVCAR-4 ovarian): > 100 µM | GI50 (HOP-92 NSCLC): > 100 µM | TGI (HOP-92 NSCLC): > 100 µM | GI50 (UACC-62 melanoma): > 100 µM | TGI (UACC-62 melanoma): > 100 µM
